Test results from the NIST ThermoML archive (doi:10.1016/j.jct.2009.11.014).

Settings: Liquid; for viscosity: Stony Brook Scientific falling needle HPHTV-100 viscometer; for mass density: vibrating tube

CCn1cc[n+](C)c1.F[B-](F)(F)F [1-ethyl-3-methylimidazolium tetrafluoroborate]
Settings	mass density [kg/m3]	viscosity [mPa·s]
282.55 K, 100 kPa	–	67.8
282.55 K, 700 kPa	–	69.1
282.55 K, 1700 kPa	–	70.1
282.55 K, 2700 kPa	–	71.6
282.55 K, 4400 kPa	–	72.9
282.55 K, 6100 kPa	–	74.3
282.55 K, 8200 kPa	–	75.5
282.55 K, 10300 kPa	–	76.1
282.55 K, 12900 kPa	–	77.9
282.55 K, 14100 kPa	–	79.3
283.15 K, 100 kPa	1297.04	–
283.15 K, 2000 kPa	1297.83	–
283.15 K, 4000 kPa	1298.68	–
283.15 K, 6000 kPa	1299.52	–
283.15 K, 8000 kPa	1300.36	–
283.15 K, 10000 kPa	1301.22	–
283.15 K, 12000 kPa	1302.03	–
283.15 K, 14000 kPa	1302.82	–
283.15 K, 20000 kPa	1305.3	–
283.15 K, 30000 kPa	1309.33	–
283.15 K, 40000 kPa	1313.27	–
283.15 K, 50000 kPa	1317.06	–
283.15 K, 60000 kPa	1320.84	–
288.15 K, 100 kPa	1293.21	–
288.15 K, 2000 kPa	1294.02	–
288.15 K, 4000 kPa	1294.88	–
288.15 K, 6000 kPa	1295.72	–
288.15 K, 8000 kPa	1296.59	–
288.15 K, 10000 kPa	1297.45	–
288.15 K, 12000 kPa	1298.29	–
288.15 K, 14000 kPa	1299.08	–
288.15 K, 20000 kPa	1301.58	–
288.15 K, 30000 kPa	1305.62	–
288.15 K, 40000 kPa	1309.54	–
288.15 K, 50000 kPa	1313.39	–
288.15 K, 60000 kPa	1317.17	–
293.15 K, 100 kPa	1289.36	–
293.15 K, 2000 kPa	1290.17	–
293.15 K, 4000 kPa	1291.05	–
293.15 K, 6000 kPa	1291.91	–
293.15 K, 8000 kPa	1292.79	–
293.15 K, 10000 kPa	1293.63	–
293.15 K, 12000 kPa	1294.48	–
293.15 K, 14000 kPa	1295.29	–
293.15 K, 20000 kPa	1297.8	–
293.15 K, 30000 kPa	1301.86	–
293.15 K, 40000 kPa	1305.84	–
293.15 K, 50000 kPa	1309.69	–
293.15 K, 60000 kPa	1313.49	–
293.75 K, 6300 kPa	–	46.1
293.75 K, 8200 kPa	–	47.5
293.75 K, 10100 kPa	–	48.4
293.75 K, 12400 kPa	–	49.3
293.85 K, 100 kPa	–	43.4
293.85 K, 700 kPa	–	43.7
293.85 K, 1700 kPa	–	44.1
293.85 K, 2700 kPa	–	44.4
293.85 K, 4200 kPa	–	44.9
293.85 K, 14500 kPa	–	49.7
298.15 K, 100 kPa	1285.51	–
298.15 K, 2000 kPa	1286.33	–
298.15 K, 4000 kPa	1287.22	–
298.15 K, 6000 kPa	1288.13	–
298.15 K, 8000 kPa	1289.02	–
298.15 K, 10000 kPa	1289.83	–
298.15 K, 12000 kPa	1290.7	–
298.15 K, 14000 kPa	1291.53	–
298.15 K, 20000 kPa	1294.05	–
298.15 K, 30000 kPa	1298.17	–
298.15 K, 40000 kPa	1302.18	–
298.15 K, 50000 kPa	1306.09	–
298.15 K, 60000 kPa	1309.95	–
303.15 K, 100 kPa	1281.74	–
303.15 K, 2000 kPa	1282.57	–
303.15 K, 4000 kPa	1283.44	–
303.15 K, 6000 kPa	1284.35	–
303.15 K, 8000 kPa	1285.26	–
303.15 K, 10000 kPa	1286.08	–
303.15 K, 12000 kPa	1287	–
303.15 K, 14000 kPa	1287.82	–
303.15 K, 20000 kPa	1290.4	–
303.15 K, 30000 kPa	1294.54	–
303.15 K, 40000 kPa	1298.58	–
303.15 K, 50000 kPa	1302.56	–
303.15 K, 60000 kPa	1306.43	–
